Source: patent US20250212884A1, “Magnesia Compounds For Preventing Contamination Of Animal Farming Facilities And For Decontamination Of Same” (priority 2022, published 2025)

Test system: Salmonella
Test: Salmonella detection (drag swabs, ISO 6579-1:2017) in poultry (turkey) buildings one week after spraying of disinfectant
Parameters: species or system Salmonella spp.
Conditions: Experiment 3; one week after application; 500 liter per 1000 m^2

## Cc1ccc(S(=O)(=O)NCl)cc1.[Na] [Chlorigal T, Sodium N-chloro-para-toluenesulfonamide]
  Salmonella test result, Sample #1: Negative
  Salmonella test result, Sample #2: Negative
